Results taken from article PMC8979054 (RSC Advances, 2022).
Like-named read-outs stand apart in the source and are kept apart here. Values belong to the compound of their own block, whether it stands above or below them.

Columns and labels:
xanthine oxidase [1] = target: T1, xanthine oxidase (Bos taurus, UniProt P80457); experiment: Fixed-ratio combination analysis on XO; conditions: for EC90: read-out: EC90 dose; for DRI: in techtochrysin + allopurinol combination
XO = conditions: cited from earlier work; for IC50: XO inhibition
xanthine oxidase [2] = target: T1, xanthine oxidase; experiment: In vitro xanthine oxidase inhibitory assay; assay type: biochemical, bovine
[3] = Dm (median-effect dose), antilog of x-intercept of median-effect plot, CompuSyn
[4] = EC50 dose, single agent, dose for 50% inhibition of XO activity
[5] = single agent, dose for 10% inhibition of XO activity
[6] = single agent, dose for 30% inhibition of XO activity
[7] = single agent, dose for 70% inhibition of XO activity

T1 sequence (P80457 whole entry): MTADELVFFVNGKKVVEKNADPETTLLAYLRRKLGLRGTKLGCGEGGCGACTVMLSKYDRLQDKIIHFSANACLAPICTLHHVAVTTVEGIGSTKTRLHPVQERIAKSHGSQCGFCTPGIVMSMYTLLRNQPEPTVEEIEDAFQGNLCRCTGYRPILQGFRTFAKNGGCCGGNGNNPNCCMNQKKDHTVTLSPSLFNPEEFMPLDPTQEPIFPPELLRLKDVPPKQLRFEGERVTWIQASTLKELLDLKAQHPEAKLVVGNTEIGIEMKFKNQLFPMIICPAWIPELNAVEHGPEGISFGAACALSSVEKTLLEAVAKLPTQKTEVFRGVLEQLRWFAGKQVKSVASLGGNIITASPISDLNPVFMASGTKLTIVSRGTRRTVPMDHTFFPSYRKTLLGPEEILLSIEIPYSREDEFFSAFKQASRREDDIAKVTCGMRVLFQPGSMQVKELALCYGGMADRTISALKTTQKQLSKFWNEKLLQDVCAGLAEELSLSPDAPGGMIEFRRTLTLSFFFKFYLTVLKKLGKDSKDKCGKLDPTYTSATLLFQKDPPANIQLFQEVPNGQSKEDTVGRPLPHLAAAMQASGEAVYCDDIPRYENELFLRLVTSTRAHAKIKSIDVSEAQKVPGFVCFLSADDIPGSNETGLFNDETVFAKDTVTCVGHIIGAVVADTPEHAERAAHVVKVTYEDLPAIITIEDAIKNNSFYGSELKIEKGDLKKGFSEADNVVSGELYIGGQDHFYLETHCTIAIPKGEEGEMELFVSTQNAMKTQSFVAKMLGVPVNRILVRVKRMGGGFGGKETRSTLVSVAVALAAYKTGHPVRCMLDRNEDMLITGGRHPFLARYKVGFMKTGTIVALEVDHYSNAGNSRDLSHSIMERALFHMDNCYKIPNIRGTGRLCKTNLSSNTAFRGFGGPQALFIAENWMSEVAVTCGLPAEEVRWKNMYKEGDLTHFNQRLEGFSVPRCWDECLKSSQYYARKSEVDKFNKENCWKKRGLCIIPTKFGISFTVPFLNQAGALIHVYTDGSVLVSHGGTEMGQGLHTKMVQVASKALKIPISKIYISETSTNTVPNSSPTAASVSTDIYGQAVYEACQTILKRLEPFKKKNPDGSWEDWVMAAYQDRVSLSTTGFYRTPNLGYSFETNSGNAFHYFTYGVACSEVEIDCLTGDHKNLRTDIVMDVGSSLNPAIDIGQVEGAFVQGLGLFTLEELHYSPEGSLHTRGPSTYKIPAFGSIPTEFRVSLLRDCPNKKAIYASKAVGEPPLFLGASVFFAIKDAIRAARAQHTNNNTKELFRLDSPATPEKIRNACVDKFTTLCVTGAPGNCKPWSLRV

Structure (SMILES): O=c1cc(-c2ccc(O)cc2)oc2cc(O)cc(O)c12 [Apigenin, apigenin]
- IC50 (XO): 6330 nM
- type of XO inhibition (XO): competitive

Structure (SMILES): O=c1c(O)c(-c2ccccc2)oc2cc(O)cc(O)c12 [Galangin, galangin]
- type of XO inhibition (XO): competitive

Structure (SMILES): O=C1c2c(O)cc(O)cc2O[C@H](c2ccccc2)[C@H]1O [Pinobanksin, pinobanksin]
- type of XO inhibition (XO): competitive

Structure (SMILES): O=c1c(O)c(-c2ccc(O)c(O)c2)oc2cc(O)cc(O)c12 [Quercetin, quercetin]
- IC50 (XO): 2920 nM
- type of XO inhibition (XO): mixed-type

Continued, in another order:

- EC10 dose (xanthine oxidase [1]): 180 nM
- EC30 dose (xanthine oxidase [1]): 420 nM
- EC70 dose (xanthine oxidase [1]): 1840 nM
- m (slope of the median-effect plot) (xanthine oxidase [1]): 1.44
- EC90 (xanthine oxidase [1]): 4050 nM
Structure (SMILES): Oc1ncnc2[nH]ncc12 [Allopurinol, allopurinol, reference compound]
- IC50 (XO): 13200 nM

- EC10 dose (xanthine oxidase [1]): 5 nM
- EC30 dose (xanthine oxidase [1]): 15 nM
- EC70 dose (xanthine oxidase [1]): 40 nM
- m (slope of the median-effect plot) (xanthine oxidase [1]): 1.57
- EC90 (xanthine oxidase [1]): 120 nM
Structure (SMILES): Cc1nc(-c2ccc(OCC(C)C)c(C#N)c2)sc1C(=O)O [Febuxostat, febuxostat, reference compound]

- IC50 (xanthine oxidase [2]): 1680 nM
Structure (SMILES): O=c1cc(-c2ccc(O)c(O)c2)oc2cc(O)cc(O)c12 [Luteolin, luteolin]
- IC50 (XO): 8210 nM
- type of XO inhibition (XO): competitive

- m (slope of the median-effect plot) (xanthine oxidase [1]; CompuSyn): 1.78
- EC50 (xanthine oxidase [1]; [3]): 1040 nM
- EC50 (xanthine oxidase [1]; [4]): 970 nM
- Dose of each drug alone required for the same effect (xanthine oxidase [1]; Fa 16%, rosmarinic acid/allopurinol analysis): 0.32 µM
- Dose of each drug alone required for the same effect (xanthine oxidase [1]; Fa 34%, rosmarinic acid/allopurinol analysis): 0.72 µM
- Dose of each drug alone required for the same effect (xanthine oxidase [1]; Fa 42%, rosmarinic acid/febuxostat analysis): 0.87 µM
- Dose of each drug alone required for the same effect (xanthine oxidase [1]; Fa 66%, rosmarinic acid/febuxostat analysis): 1.78 µM
- Dose of each drug alone required for the same effect (xanthine oxidase [1]; Fa 69%, rosmarinic acid/allopurinol analysis): 2.06 µM
- Dose of each drug alone required for the same effect (xanthine oxidase [1]; Fa 74%, rosmarinic acid/febuxostat analysis): 2.35 µM
- Dose of each drug alone required for the same effect (xanthine oxidase [1]; Fa 82%, rosmarinic acid/febuxostat analysis): 3.42 µM
- Dose of each drug alone required for the same effect (xanthine oxidase [1]; Fa 92%, rosmarinic acid/febuxostat analysis): 6.21 µM
- Dose of each drug alone required for the same effect (xanthine oxidase [1]; Fa 93%, rosmarinic acid/allopurinol analysis): 8.35 µM
- Dose of each drug alone required for the same effect (xanthine oxidase [1]; Fa 98%, rosmarinic acid/allopurinol analysis): 21.32 µM
- EC90 (xanthine oxidase [1]): 5220 nM
- EC10 dose (xanthine oxidase [1]; [5]): 260 nM
- EC30 dose (xanthine oxidase [1]; [6]): 480 nM
- EC70 dose (xanthine oxidase [1]; [7]): 2440 nM
- IC50 (xanthine oxidase [2]): 970 nM
Structure (SMILES): O=C(/C=C/c1ccc(O)c(O)c1)O[C@H](Cc1ccc(O)c(O)c1)C(=O)O [Rosmarinic acid, rosmarinic acid]

- m (slope of the median-effect plot) (xanthine oxidase [1]; CompuSyn): 1.73
- EC50 (xanthine oxidase [1]; [3]): 81 nM
- EC50 (xanthine oxidase [1]; [4]): 84 nM
- Dose of each drug alone required for the same effect (xanthine oxidase [1]; Fa 19%, techtochrysin/allopurinol analysis): 0.031 µM
- Dose of each drug alone required for the same effect (xanthine oxidase [1]; Fa 35%, techtochrysin/allopurinol analysis): 0.064 µM
- Dose of each drug alone required for the same effect (xanthine oxidase [1]; Fa 53%, techtochrysin/febuxostat analysis): 0.11 µM
- Dose of each drug alone required for the same effect (xanthine oxidase [1]; Fa 57%, techtochrysin/allopurinol analysis): 0.15 µM
- Dose of each drug alone required for the same effect (xanthine oxidase [1]; Fa 69%, techtochrysin/febuxostat analysis): 0.20 µM
- Dose of each drug alone required for the same effect (xanthine oxidase [1]; Fa 75%, techtochrysin/febuxostat analysis): 0.25 µM
- Dose of each drug alone required for the same effect (xanthine oxidase [1]; Fa 84%, techtochrysin/febuxostat analysis): 0.39 µM
- Dose of each drug alone required for the same effect (xanthine oxidase [1]; Fa 91%, techtochrysin/allopurinol analysis): 0.98 µM
- Dose of each drug alone required for the same effect (xanthine oxidase [1]; Fa 94%, techtochrysin/febuxostat analysis): 0.96 µM
- Dose of each drug alone required for the same effect (xanthine oxidase [1]; Fa 97%, techtochrysin/allopurinol analysis): 3.19 µM
- DRI (xanthine oxidase [1]; Fa […]% (70% effect level doses)): 3.51 fold
- DRI (xanthine oxidase [1]; Fa […]% (90% effect level doses)): 3.63 fold
- EC90 (xanthine oxidase [1]): 880 nM
- EC10 dose (xanthine oxidase [1]; [5]): 24 nM
- EC30 dose (xanthine oxidase [1]; [6]): 46 nM
- EC70 dose (xanthine oxidase [1]; [7]): 280 nM
- IC50 (xanthine oxidase [2]): 84 nM
- fold enhancement in XO inhibitory activity compared with allopurinol (xanthine oxidase [2]; from IC50 values of Table 5): 10 folds
Structure (SMILES): COc1cc(O)c2c(=O)cc(-c3ccccc3)oc2c1 [Techtochrysin, techtochrysin]
